This is an account of results in US12109204B2, “Methods for treating muscular dystrophies” (The Regents of the University of California, priority 2018, dated 2024).

Type in all cases: cell-based, murine
The subject of assay [1] is C2C12 wild-type myotubes. Kind of assay: Fusion index and myotube morphology in wild-type myotubes.
Assay [2] concerns hSSPN-Luciferase reporter cells (human sarcospan promoter reporter in C2C12). The experiment in a line: hSSPN-Luciferase reporter assay (Bright-Glo). To be noted: doses between 3.9 nm to 1 μM, 48 hours (FIG. 10b). On the procedure:
C2C12 immortalized murine myoblasts cultured in growth media consisting of DMEM (Gibco) with 20% Fetal Bovine Serum (Sigma-Aldrich) at 37° C. with 5% CO2 were transfected with the hSSPN-EGFP or hSSPN-Luciferase linearized plasmids using Lipofectamine 3000 Transfection Reagent (Thermo Fisher Scientific). Transfected cells were selected using 800 μg/ml of G418 (Sigma-Aldrich) for 4 weeks to generate stable cell lines expressing reporter protein under control of the human SSPN promoter.
hSSPN-Luciferase myoblasts were cultured as described above. After 48 hours of treatment, plates were allowed to equilibrate to room temperature before the media was aspirated using an EL406 combination washer dispenser at room temperature. Bright-Glo luciferase assay system reagent (Promega) and differentiation media were added to cells at a 1:2 dilution using a Multidrop 384. After a 3-minute incubation at room temperature, luminescence signal was quantified using an Envision plate reader (PerkinElmer). The relative luminescence units were analyzed to determine fold change of treated over vehicle treated cells.
Cells were treated for 48 hours beginning at day 2 of differentiation with DMSO (vehicle control, ATCC), felodipine (Sigma), nilvadipine (Sigma), alloxazine (Sigma), GW5074 (Sigma), methylthioadenosine (Santa Cruz Biotechnology), or ezutromid (Cayman Chemicals) diluted in cell type specific differentiation media at doses listed in the figures. For gene expression studies, each treatment was performed in duplicate. For protein studies, each treatment was performed with single or double replicates.

The test system of assay [3] is SSPN protein. The experiment in a line: SSPN protein immunoblot in mdx myotubes. Conditions: mdx cells, 48 hours, immunoblot normalized to GAPDH (FIG. 10f). The protocol:
C2C12 cells (American Type Culture Collection) were grown at 37° C. with 5% CO2 in growth media containing DMEM (Gibco) with 20% FBS (Sigma-Aldrich). Upon reaching confluency, the media was replaced with differentiation media containing DMEM with 2% horse serum (Sigma-Aldrich). Conditionally immortalized H2K mdx myoblast cells with a nonsense mutation in exon 23 of dystrophin were a gift from Terrance Partridge, Ph.D. (Children's National Medical Center, Washington, D.C.). Cells were allowed to proliferate on 0.01% gelatin (Sigma-Aldrich) coated plates at 33° C. with 5% CO2 with growth media containing DMEM, 20% HI-FBS (Invitrogen), 2% L-glutamine (Sigma-Aldrich), 2% chicken embryo extract (Accurate Chemical), 1% penicillin-streptomycin (Sigma-Aldrich), and 20U/ml of fresh interferon gamma (Gibco). […] The supernatant was collected, quantified for protein concentration using the DC protein assay (Bio-Rad), and normalized to 2 mg/ml in water and Laemmli sample buffer with a final concentration of 10% glycerol (Sigma-Aldrich), 5% beta-mercaptoethanol (Sigma-Aldrich), 3% sodium dodecyl sulfate (Sigma-Aldrich), and 0.05% bromophenol blue (Sigma-Aldrich). […] Autoradiography films were developed using a SRX-101A tabletop processor (Konica Minolta), scanned to a digital file, and analyzed by densitometry of bands using ImageJ version 1.51s. […]
On the technique in general: A western blot detects proteins with antibodies after separation by electrophoresis.

In the case of `CCOC(=O)C1=C(C)NC(C)=C(C(=O)OC)C1c1cccc(Cl)c1Cl` (centres unmarked) [Felodipine, 5-O-ethyl 3-O-methyl 4-(2,3-dichlorophenyl)-2,6-dimethyl-1,4-dihydropyridine-3,5-dicarboxylate], the “fusion index (nuclei in myosin heavy chain positive area/total nuclei in field)” value in assay [1] (wild-type myotubes (FIG. 12c-d)) is listed as “does not increase fusion index”. For the same molecule, in assay [1] (wild-type myotubes (FIG. 12e-f)), the “formation of hypertrophic myotubes” value is “does induce the formation of hypertrophic wild-type myotubes”. Also, the “hSSPN-Luciferase reporter activity, counterscreen” value in assay [2] is listed as “increased activity”. Besides, the SSPN protein levels result in assay [3] is listed as “increases sarcospan protein levels”; in assay [3] (listed as felodipine) it was “increased SSPN protein levels”.
